{"source": "paper PMC3358308", "about": "(2012)", "key": {"[1]": {"test_system": "Oxy28 (DNA, G4) GGGGTTTTGGGGTTTTGGGGTTTTGGGG", "experiment": "UV-Vis absorption titration, Job plot, fluorescence", "conditions": "K+ 50 mM (KCl); 10 mM Tris-HCl pH 7.0, 1 mM EDTA, 25 °C; 5 µM compound; Scatchard two-site, constants not given"}, "[2]": {"test_system": "KRAS (DNA, G4) AGGGCGGTGTGGGAAGAGGGAAGAGGGGGAGG", "experiment": "UV-Vis absorption titration, Job plot, fluorescence", "conditions": "K+ 50 mM (KCl); 10 mM Tris-HCl pH 7.0, 1 mM EDTA, 25 °C; 5 µM compound; Scatchard two-site, constants not given"}, "[3]": {"test_system": "M3Q (DNA, G4) GAGGGAGGGAGGGAGAGGGA", "experiment": "UV-Vis absorption titration, Job plot, fluorescence", "conditions": "K+ 50 mM (KCl); 10 mM Tris-HCl pH 7.0, 1 mM EDTA, 25 °C; 5 µM compound; Scatchard two-site, constants not given"}, "[4]": {"test_system": "LD (DNA, duplex) GCGCAATTGCGC", "experiment": "UV-Vis absorption, fluorescence", "conditions": "K+ 50 mM (KCl); 10 mM Tris-HCl pH 7.0, 1 mM EDTA; 5 µM compound, 10 µM strand; weak new band at 682 nm"}, "[5]": {"test_system": "Hum24 (DNA, G4) TTAGGGTTAGGGTTAGGGTTAGGG", "experiment": "UV-Vis absorption titration, Job plot, fluorescence", "conditions": "K+ 50 mM (KCl); 10 mM Tris-HCl pH 7.0, 1 mM EDTA, 25 °C; 5 µM compound; Scatchard two-site, constants not given"}}}
{"smiles": "C[N+]1(CCOc2ccc(-c3c4nc(c(-c5ccc(OCC[N+]6(C)CCCCC6)cc5)c5ccc([nH]5)c(-c5ccc(OCC[N+]6(C)CCCCC6)cc5)c5nc(c(-c6ccc(OCC[N+]7(C)CCCCC7)cc6)c6ccc3[nH]6)C=C5)C=C4)cc2)CCCCC1", "values": [{"measurement": "binding", "setting": "[1]", "value": "yes"}, {"measurement": "binding", "setting": "[2]", "value": "yes"}, {"measurement": "binding", "setting": "[3]", "value": "yes"}, {"measurement": "binding", "setting": "[4]", "value": "weak"}, {"measurement": "binding", "setting": "[5]", "value": "yes"}]}
